According to ChEMBL document CHEMBL5226336, “Design, Synthesis, and Evaluation of [18F]T-914 as a Novel Positron-Emission Tomography Tracer for Lysine-Specific Demethylase 1” (J Med Chem, 2021):
Active and inactive are the calls of the source. The calls are words filed in the database; no cut-off is given here.

Legend:
[1] = Drug uptake in rhesus monkey cerebellum administered intravenously and measured after 90 to 180 mins by PET/MRI imaging analysis; format: ADME, tissue-based, Macaca mulatta; conditions: in vivo, iv, time 90-180 min
[2] = Drug uptake in rhesus monkey caudate nucleus administered intravenously and measured after 90 to 180 mins by PET/MRI imaging analysis; format: ADME, tissue-based, Macaca mulatta; conditions: in vivo, iv, time 90-180 min
[3] = Drug uptake in rhesus monkey anterior cingulate cortex administered intravenously and measured after 90 to 180 mins by PET/MRI imaging analysis; format: ADME, tissue-based, Macaca mulatta; conditions: in vivo, iv, time 90-180 min
[4] = Drug uptake in rhesus monkey frontal lobe administered intravenously and measured after 90 to 180 mins by PET/MRI imaging analysis; format: ADME, tissue-based, Macaca mulatta; conditions: in vivo, iv, time 90-180 min
[5] = Drug uptake in rhesus monkey cerebellum administered intravenously pretreated with N-(4-[(1S,2R)/(1R,2S)-2-[(Cyclopropylmethyl)amino)cyclopropyl)phenyl)-6-fluoro-4-methylpyridine-3-carboxamide followed by compound addition and measured after 90 to 180 mins by PET/MRI imaging analysis; format: ADME, Macaca mulatta; conditions: in vivo, iv, time 90-180 min
[6] = Drug uptake in rhesus monkey pons administered intravenously and measured after 90 to 180 mins by PET/MRI imaging analysis; format: ADME, tissue-based, Macaca mulatta; conditions: in vivo, iv, time 90-180 min
[7] = Drug uptake in Sprague-Dawley rat brain at 1 mg/kg, iv measured after 1 to 24 hrs by LC-MS analysis; format: ADME, organism-based; conditions: in vivo, time 1-24 hrs
[8] = Drug metabolism in cryopreserved human hepatocytes assessed as N-acetylglucosamine conjugation-mediated metabolite formation measured for 6 hrs by HPLC-UV and LC/MS analysis; format: ADME, cell-based, Hepatocyte
[9] = Total clearance in cynomolgus monkey at 0.1 mg/kg, iv by LC-MS/MS analysis; format: ADME, organism-based, Macaca fascicularis; conditions: in vivo
[10] = Drug metabolism in cryopreserved monkey hepatocytes assessed as hydrolysis-mediated 6-fluoro-4-methylnicotinic acid formation measured for 6 hrs by HPLC-UV and LC/MS analysis; format: ADME, cell-based, Macaca mulatta, Hepatocyte; conditions: rhesus monkey
[11] = Unbound drug concentration in cynomolgus monkey plasma assessed as free fraction ratio; format: ADME, cell-free, Macaca fascicularis
[12] = AUC(0 to 6 hrs) in cynomolgus monkey at 0.1 mg/kg, iv by LC-MS/MS analysis; format: ADME, organism-based, Macaca fascicularis; set-up: dose 0.1 mg/kg, route iv; conditions: in vivo
[13] = target: P-glycoprotein (ABCB1, MDR1) (Homo sapiens, UniProt P08183); assay: Substrate activity at p-glycoprotein (unknown origin) expressed in pig LLC-PK1 cells coexpressing MDR1 assessed as efflux ratio at apparent permeability across basolateral to apical side to apparent permeability across apical to basolateral side at 1 uM measured after 1 hr by LC-MS/MS analysis; format: ADME, cell-based
[14] = Retention time of the compound by HPLC method; format: physicochemical
[15] = Half life in cynomolgus monkey at 0.1 mg/kg, iv by LC-MS/MS analysis; format: ADME, organism-based, Macaca fascicularis; conditions: in vivo
[16] = Drug concentration in cynomolgus monkey plasma at 0.1 mg/kg, iv measured after 5 mins by LC-MS/MS analysis; format: ADME, organism-based, Macaca fascicularis
LSD1/CoREST complex = LSD1/CoREST complex (Homo sapiens, UniProt O60341); assay: Inhibition of human recombinant LSD1/CoREST using ART(mK)QTARKSTGGKAPRKQLAGGK-biotin as substrate incubated for 15 mins; format: protein-complex assay
[17] = target: Lysine-specific histone demethylase 1A (Homo sapiens) (UniProt O60341); assay: Binding affinity to human recombinant LSD1 assessed as compound-FAD adduct formation at 1 mM incubated for 1 hr by LC-MS analysis
[18] = Drug metabolism in cryopreserved monkey hepatocytes assessed as N-acetylglucosamine conjugation-mediated metabolite formation measured for 6 hrs by HPLC-UV and LC/MS analysis; format: ADME, cell-based, Macaca mulatta, Hepatocyte; conditions: rhesus monkey
[19] = target: T1, Amine oxidase [flavin-containing] B (Homo sapiens, UniProt P27338); assay: Inhibition of MAO-B (unknown origin) incubated for 10 mins followed by MAO substrate addition and measured after 60 mins by luciferin-based luminescence assay
T1 sequence (P27338 whole entry): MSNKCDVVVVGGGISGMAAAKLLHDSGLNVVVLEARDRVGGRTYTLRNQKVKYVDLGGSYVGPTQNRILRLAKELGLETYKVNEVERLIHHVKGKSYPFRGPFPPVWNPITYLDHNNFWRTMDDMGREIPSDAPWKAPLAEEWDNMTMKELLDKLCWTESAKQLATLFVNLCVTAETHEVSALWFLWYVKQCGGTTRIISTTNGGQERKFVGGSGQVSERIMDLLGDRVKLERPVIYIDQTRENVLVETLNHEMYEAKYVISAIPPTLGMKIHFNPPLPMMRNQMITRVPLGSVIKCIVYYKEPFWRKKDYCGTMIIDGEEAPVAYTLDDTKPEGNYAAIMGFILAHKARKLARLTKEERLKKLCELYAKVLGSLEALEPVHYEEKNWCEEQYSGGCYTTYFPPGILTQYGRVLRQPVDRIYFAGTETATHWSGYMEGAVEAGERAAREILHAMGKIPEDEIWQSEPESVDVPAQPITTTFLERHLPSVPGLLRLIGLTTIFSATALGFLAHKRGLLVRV

[20] = Lipophilicity, logD of the compound at pH 7.4; format: physicochemical; conditions: buffer
[21] = Drug metabolism in cryopreserved rat hepatocytes assessed as hydrolysis-mediated 6-fluoro-4-methylnicotinic acid formation measured for 6 hrs by HPLC-UV and LC/MS analysis; format: ADME, cell-based, Hepatocyte
[22] = Drug metabolism in cryopreserved human hepatocytes assessed as hydrolysis-mediated 6-fluoro-4-methylnicotinic acid formation measured for 6 hrs by HPLC-UV and LC/MS analysis; format: ADME, cell-based, Hepatocyte
[23] = Drug metabolism in cryopreserved rat hepatocytes assessed as N-acetylglucosamine conjugation-mediated metabolite formation measured for 6 hrs by HPLC-UV and LC/MS analysis; format: ADME, cell-based, Hepatocyte
[24] = Drug metabolism in Sprague-Dawley rat brain assessed as fluorine-containing metabolite level in cortex at 10 mg/kg, iv measured after 1 to 4 hrs by HPLC-UV and LC/MS analysis; format: ADME, organism-based; conditions: in vivo, time 1-4 hrs
[25] = Unbound drug concentration in Sprague-Dawley rat brain homogenate assessed as free fraction ratio; format: ADME, tissue-based
[26] = Unbound drug concentration in Sprague-Dawley rat plasma assessed as free fraction ratio; format: ADME, cell-free
[27] = Volume of distribution at steady state in cynomolgus monkey at 0.1 mg/kg, iv by LC-MS/MS analysis; format: ADME, organism-based, Macaca fascicularis; conditions: in vivo, read-out: Vdss
[28] = target: T2, Amine oxidase [flavin-containing] A (Homo sapiens, UniProt P21397); assay: Inhibition of MAO-A (unknown origin) incubated for 10 mins followed by MAO substrate addition and measured after 60 mins by luciferin-based luminescence assay
T2 sequence (P21397 whole entry): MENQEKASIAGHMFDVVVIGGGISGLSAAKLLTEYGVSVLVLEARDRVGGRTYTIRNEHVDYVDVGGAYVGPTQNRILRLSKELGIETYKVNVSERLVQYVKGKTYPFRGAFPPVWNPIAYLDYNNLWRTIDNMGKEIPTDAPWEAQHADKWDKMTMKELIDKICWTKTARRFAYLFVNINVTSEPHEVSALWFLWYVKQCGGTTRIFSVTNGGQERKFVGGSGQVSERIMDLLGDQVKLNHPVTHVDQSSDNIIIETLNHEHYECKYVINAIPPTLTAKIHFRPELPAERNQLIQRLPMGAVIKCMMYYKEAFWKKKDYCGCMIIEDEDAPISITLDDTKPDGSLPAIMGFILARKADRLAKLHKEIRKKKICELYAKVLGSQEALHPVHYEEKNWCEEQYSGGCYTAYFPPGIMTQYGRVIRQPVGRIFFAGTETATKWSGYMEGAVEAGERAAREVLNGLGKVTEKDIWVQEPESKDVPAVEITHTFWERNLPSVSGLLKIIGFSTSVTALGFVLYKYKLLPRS

[29] = Drug metabolism in Sprague-Dawley rat brain assessed as N-(6-fluoro-4-methylpyridin-3-yl)acetamide level in cortex at 10 mg/kg, iv measured after 1 hr by HPLC-UV and LC/MS analysis; format: ADME, organism-based; conditions: in vivo
[30] = Drug metabolism in Sprague-Dawley rat brain assessed as N-(6-fluoro-4-methylpyridin-3-yl)acetamide level in cortex at 10 mg/kg, iv measured after 4 hrs by HPLC-UV and LC/MS analysis; format: ADME, organism-based; conditions: in vivo
[31] = Drug metabolism in Sprague-Dawley rat brain assessed as 6-fluoronicotinic acid formation in cortex at 10 mg/kg, iv measured after 4 hrs by HPLC-UV and LC/MS analysis; format: ADME, organism-based; conditions: in vivo
[32] = Drug metabolism in Sprague-Dawley rat brain assessed as 6-fluoronicotinic acid level in cortex at 10 mg/kg, iv measured after 1 hr by HPLC-UV and LC/MS analysis; format: ADME, organism-based; conditions: in vivo
[33] = Drug metabolism in Sprague-Dawley rat brain assessed as N-(6-fluoropyridin-3-yl)-N-methylacetamide level in cortex at 1 mg/kg, iv measured after 4 hrs by HPLC-UV and LC/MS analysis; format: ADME, organism-based; conditions: in vivo
[34] = Drug uptake in Sprague-Dawley rat brain at 1 mg/kg, iv measured after 4 hrs by LC-MS analysis; format: ADME, organism-based; conditions: in vivo, BLD = below limit of detection
[35] = Drug metabolism in Sprague-Dawley rat brain assessed as N-(6-fluoropyridin-3-yl)-N-methylacetamide level in cortex at 1 mg/kg, iv measured after 1 hr by HPLC-UV and LC/MS analysis; format: ADME, organism-based; conditions: in vivo

P-glycoprotein (ABCB1, MDR1), sequence (P08183 whole entry): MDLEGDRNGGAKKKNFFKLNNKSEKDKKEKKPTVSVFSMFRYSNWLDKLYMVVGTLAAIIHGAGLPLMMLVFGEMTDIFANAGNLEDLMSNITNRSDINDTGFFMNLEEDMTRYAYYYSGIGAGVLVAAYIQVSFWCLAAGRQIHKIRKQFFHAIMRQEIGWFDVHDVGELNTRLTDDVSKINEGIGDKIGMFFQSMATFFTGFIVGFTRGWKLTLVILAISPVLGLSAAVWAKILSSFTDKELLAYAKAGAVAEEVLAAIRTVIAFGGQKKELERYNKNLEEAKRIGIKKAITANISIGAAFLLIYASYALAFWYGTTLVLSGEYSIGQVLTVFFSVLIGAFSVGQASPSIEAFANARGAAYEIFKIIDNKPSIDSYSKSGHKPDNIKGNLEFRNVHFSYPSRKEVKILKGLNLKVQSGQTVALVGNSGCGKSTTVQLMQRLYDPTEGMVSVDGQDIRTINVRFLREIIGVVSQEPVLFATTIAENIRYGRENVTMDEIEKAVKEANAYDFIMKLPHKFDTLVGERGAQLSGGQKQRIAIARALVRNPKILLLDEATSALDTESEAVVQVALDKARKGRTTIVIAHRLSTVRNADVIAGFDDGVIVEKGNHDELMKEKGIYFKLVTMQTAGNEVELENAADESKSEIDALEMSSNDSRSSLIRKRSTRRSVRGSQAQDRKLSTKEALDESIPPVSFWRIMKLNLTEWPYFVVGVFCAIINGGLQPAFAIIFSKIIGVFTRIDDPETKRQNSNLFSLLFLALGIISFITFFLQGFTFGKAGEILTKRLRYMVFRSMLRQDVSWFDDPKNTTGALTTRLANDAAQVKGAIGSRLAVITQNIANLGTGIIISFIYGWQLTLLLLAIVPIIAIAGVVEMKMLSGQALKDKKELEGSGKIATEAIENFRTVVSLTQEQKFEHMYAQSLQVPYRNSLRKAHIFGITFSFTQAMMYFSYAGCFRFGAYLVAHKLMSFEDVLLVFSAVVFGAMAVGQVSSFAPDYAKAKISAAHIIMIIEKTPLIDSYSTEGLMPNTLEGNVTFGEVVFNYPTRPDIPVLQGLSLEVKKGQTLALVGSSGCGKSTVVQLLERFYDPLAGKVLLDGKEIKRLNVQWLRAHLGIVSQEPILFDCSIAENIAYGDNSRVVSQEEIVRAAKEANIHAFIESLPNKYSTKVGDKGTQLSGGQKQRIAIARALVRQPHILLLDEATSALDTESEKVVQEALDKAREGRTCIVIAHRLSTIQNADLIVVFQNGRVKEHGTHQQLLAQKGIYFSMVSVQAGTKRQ

Cc1cc([18F])ncc1C(=O)Nc1ccc([C@@H]2C[C@H]2NCC2CC2)cc1
Drug uptake [1]: Active | Drug uptake [2]: Active | Drug uptake [3]: Active | Drug uptake [4]: Active | Drug uptake [5]: Not Active | Drug uptake [6]: Active

CN(C(=O)c1ccc(CCC(=O)O)cc1)c1ccc(F)nc1
Drug uptake [7]: Not Active

Cc1cc(F)ncc1C(=O)Nc1ccc([C@@H]2C[C@H]2NCC2CC2)cc1
Drug metabolism [8]: Metabolite_Notdetected | clearance [9]: 32.5 mL/min/kg | Drug metabolism [10]: Metabolite_Notdetected | Ratio [11]: 0.67 | AUC(0-t) [12]: 51.6 ng·h/mL | efflux ratio at 1 h, 1 µM [13]: 0.91 | Retention_time [14]: 11.85 min | half-life [15]: 1.75 h | concentration at 5 min [16]: 31.2 ng/mL | IC50 (LSD1/CoREST complex): 0.0072 µM | Activity [17]: Active | Drug metabolism [18]: Metabolite_Detected | IC50 [19]: 33 µM | logD [20]: 1.62 | Drug metabolism [21]: Metabolite_Notdetected | Drug metabolism [22]: Metabolite_Notdetected | Drug metabolism [23]: Metabolite_Notdetected | Drug metabolism [24]: 0.21 nmol/g | Ratio [25]: 0.277 | Ratio [26]: 0.69 | Vd [27]: 3.13 L/kg | IC50 [28]: > 100 µM

CC(=O)N(C)c1ccc(F)nc1
Drug uptake [7]: Active

Cc1cc(F)ncc1N(C)C(=O)c1ccc([C@@H]2C[C@H]2NCC2CC2)cc1
efflux ratio at 1 h, 1 µM [13]: 1.4 | IC50 (LSD1/CoREST complex): 0.0039 µM | Drug metabolism [29]: 0.1 nmol/g | Drug metabolism [30]: 0.24 nmol/g

O=C(c1ccc([C@@H]2C[C@H]2NCC2CC2)cc1)N1CC(F)C1
efflux ratio at 1 h, 1 µM [13]: 0.64 | IC50 (LSD1/CoREST complex): 0.064 µM

O=C(Nc1ccc([C@@H]2C[C@H]2NCC2CC2)cc1)c1ccc(F)nc1
Drug metabolism [31]: Metabolite_Notdetected | efflux ratio at 1 h, 1 µM [13]: 0.8 | IC50 (LSD1/CoREST complex): 0.01 µM | Drug metabolism [32]: 0.28 nmol/g

CN(C(=O)c1ccc([C@@H]2C[C@H]2NCC2CC2)cc1)c1ccc(F)nc1
Drug metabolism [33]: 1.16 nmol/g | Drug uptake [34]: Bld | Drug metabolism [35]: 0.87 nmol/g

Cc1cc(F)ncc1C(=O)O
Retention_time [14]: 2.19 min

Cc1nc(F)ccc1N(C)C(=O)c1ccc([C@@H]2C[C@H]2NCC2CC2)cc1
efflux ratio at 1 h, 1 µM [13]: 1.3 | IC50 (LSD1/CoREST complex): 0.0054 µM

O=C(c1ccc([C@@H]2C[C@H]2NCC2CC2)cc1)N1CCC(F)CC1
efflux ratio at 1 h, 1 µM [13]: 0.66 | IC50 (LSD1/CoREST complex): 0.024 µM
